In assay [1] the target is T1, biotinylated Avi-POLΘ[2-894] (Homo sapiens, UniProt O75417).
T1 construct: 1 nM biotinylated Avi-POLΘ[2-894]
Description: ATPase assay (ADP-Glo): POLΘ-mediated ATP hydrolysis. The settings on record: read-out: Biochemical ATPase ADPGlo IC50. (In general: ADP-Glo turns the ADP formed in a reaction into a luminescent signal.)

A further assay concerns DLD1 BRCA2 (−/−) cells. Description: DLD1 viability assay (CellTiter-Glo, 7 days), DLD1 BRCA2 (−/−). It counts as cell-based. To be noted: read-out: Viability IC50 (μM) DLD1 BRCA2 null.
A further assay has as its system DLD1 WT cells. Description: DLD1 viability assay (CellTiter-Glo, 7 days), DLD1 WT. In kind it is cell-based.

Where two headings read alike, the source gives them in different places. Where only a bound is given, the exact number is not on record here.

T1 sequence (O75417 2-894 limits assumed): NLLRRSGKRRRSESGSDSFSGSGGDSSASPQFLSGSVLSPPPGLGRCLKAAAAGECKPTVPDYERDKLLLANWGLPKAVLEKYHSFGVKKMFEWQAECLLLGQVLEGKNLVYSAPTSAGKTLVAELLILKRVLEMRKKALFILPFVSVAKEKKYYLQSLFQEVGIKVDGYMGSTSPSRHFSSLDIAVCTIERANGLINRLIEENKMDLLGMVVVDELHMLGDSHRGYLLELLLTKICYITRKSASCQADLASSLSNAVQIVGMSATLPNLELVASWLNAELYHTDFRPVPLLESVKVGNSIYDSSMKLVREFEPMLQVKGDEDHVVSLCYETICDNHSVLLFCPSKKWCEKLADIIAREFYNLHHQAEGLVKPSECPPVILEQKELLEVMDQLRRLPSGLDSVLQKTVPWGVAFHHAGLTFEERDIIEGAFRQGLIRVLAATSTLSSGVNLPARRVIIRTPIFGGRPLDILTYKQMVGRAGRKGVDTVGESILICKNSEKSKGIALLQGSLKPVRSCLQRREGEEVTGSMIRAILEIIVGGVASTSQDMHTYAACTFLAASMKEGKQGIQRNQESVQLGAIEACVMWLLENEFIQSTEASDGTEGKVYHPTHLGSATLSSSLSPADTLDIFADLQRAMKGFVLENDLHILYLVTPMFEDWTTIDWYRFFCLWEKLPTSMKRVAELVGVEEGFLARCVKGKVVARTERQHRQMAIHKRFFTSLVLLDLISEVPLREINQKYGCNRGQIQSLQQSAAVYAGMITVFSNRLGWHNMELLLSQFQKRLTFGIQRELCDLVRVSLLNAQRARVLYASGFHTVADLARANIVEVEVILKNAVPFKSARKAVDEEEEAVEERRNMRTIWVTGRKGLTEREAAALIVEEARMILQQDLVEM

What is called IC50 is the concentration that gives 50% inhibition. As to `COc1cnc(Cl)cc1-c1cc(C)ncc1C(=O)Nc1nn2cc(C(=O)N[C@H]3CCCC[C@@H]3O)nc2s1` (racemic) [Example 281], the IC50 in assay [1] is 1 to 15 nM; with DLD1 BRCA2 (−/−) cells (Homo sapiens, DLD-1, 168 h) it was > 2 µM; in the assay on DLD1 WT cells (Homo sapiens, DLD-1, 168 h), > 10 µM.

For the molecule `COc1cnc(Cl)cc1-c1cc(C)ncc1C(=O)Nc1nn2cc(C(=O)NC3CCC3)nc2s1` (racemic) [Example 288], the IC50 in assay [1] was 1 to 15 nM; with DLD1 BRCA2 (−/−) cells (Homo sapiens, DLD-1, 168 h), 0.25 to 0.5 µM; with DLD1 WT cells (Homo sapiens, DLD-1, 168 h) it was > 10 µM.

`COc1cnc(Cl)cc1-c1cc(C)ncc1C(=O)Nc1nc2ncc(C3CCOC3)nc2s1` (racemic) [Example 510, (Racemic)-2′-chloro-5′-methoxy-6-methyl-N-(6-(tetrahydrofuran-3-yl)thiazolo[4,5-b]pyrazin-2-yl)-[4,4′-bipyridine]-3-carboxamide]: the IC50 in assay [1] is 1 to 15 nM; in the assay with DLD1 BRCA2 (−/−) cells (Homo sapiens, DLD-1, 168 h) it was 0.1 to 0.25 µM; in the assay on DLD1 WT cells (Homo sapiens, DLD-1, 168 h) it was > 10 µM.

Take `COc1cnc(Cl)cc1-c1cc(C)ncc1C(=O)Nc1nc2ncc(C34CCC(C#N)(CC3)CC4)nc2s1` (single isomer, unassigned) [Example 359, 2′-chloro-N-(6-(4-cyanobicyclo[2.2.2]octan-1-yl)thiazolo[4,5-b]pyrazin-2-yl)-5′-methoxy-6-methyl-[4,4′-bipyridine]-3-carboxamide]: the IC50 in assay [1] is 1 to 15 nM; with DLD1 BRCA2 (−/−) cells (Homo sapiens, DLD-1, 168 h), 0.001 to 0.1 µM; in the assay with DLD1 WT cells (Homo sapiens, DLD-1, 168 h), > 10 µM.

As for `COc1cnc(Cl)cc1-c1cc(C)ncc1C(=O)Nc1nc2ncc(C34CC(C#N)(C3)C4)nc2s1` (single isomer, unassigned) [Example 360, 2′-chloro-N-(6-(3-cyanobicyclo[1.1.1]pentan-1-yl)thiazolo[4,5-b]pyrazin-2-yl)-5′-methoxy-6-methyl-[4,4′-bipyridine]-3-carboxamide], the IC50 in assay [1] was 1 to 15 nM; in the assay on DLD1 BRCA2 (−/−) cells (Homo sapiens, DLD-1, 168 h) it was 0.001 to 0.1 µM; with DLD1 WT cells (Homo sapiens, DLD-1, 168 h), > 10 µM.

Consider `COc1cnc(Cl)cc1-c1cc(C)ncc1C(=O)Nc1nc2ncc(C3CC4CC3CC4C#N)nc2s1` (single isomer, unassigned) [Example 361, 2′-chloro-N-(6-(5-cyanobicyclo[2.2.1]heptan-2-yl)thiazolo[4,5-b]pyrazin-2-yl)-5′-methoxy-6-methyl-[4,4′-bipyridine]-3-carboxamide], for which the IC50 is 1 to 15 nM in assay [1]; 0.001 to 0.1 µM in the assay with DLD1 BRCA2 (−/−) cells (Homo sapiens, DLD-1, 168 h); > 10 µM in the assay on DLD1 WT cells (Homo sapiens, DLD-1, 168 h).

With `COc1cnc(Cl)cc1-c1cc(C)ncc1C(=O)Nc1nc2ncc([C@@H]3CC4CC3C[C@H]4C#N)nc2s1` (single isomer, unassigned) [Example 361A, 2′-chloro-N-(6-((2R or S,5R or S)-5-cyanobicyclo[2.2.1]heptan-2-yl)thiazolo[4,5-b]pyrazin-2-yl)-5′-methoxy-6-methyl-[4,4′-bipyridine]-3-carboxamide], the half-maximal inhibitory concentration (IC50) in assay [1] was 1 to 15 nM; in the assay on DLD1 BRCA2 (−/−) cells (Homo sapiens, DLD-1, 168 h) it was 0.001 to 0.1 µM; with DLD1 WT cells (Homo sapiens, DLD-1, 168 h) it was > 10 µM.

Consider `COc1cnc(Cl)cc1-c1cc(C)ncc1C(=O)Nc1nc2ncc([C@H]3CC4CC3C[C@@H]4C#N)nc2s1` (single isomer, unassigned) [Example 361B, 2′-chloro-N-(6-((2S or R,5S or R)-5-cyanobicyclo[2.2.1]heptan-2-yl)thiazolo[4,5-b]pyrazin-2-yl)-5′-methoxy-6-methyl-[4,4′-bipyridine]-3-carboxamide], for which the IC50 in assay [1] was 1 to 15 nM; in the assay on DLD1 BRCA2 (−/−) cells (Homo sapiens, DLD-1, 168 h) it was 0.001 to 0.1 µM; in the assay with DLD1 WT cells (Homo sapiens, DLD-1, 168 h), > 10 µM.

Turning to `COc1cnc(Cl)cc1-c1cc(C)ncc1C(=O)Nc1nc2ncc([C@@H]3CC4CC3C[C@@H]4C#N)nc2s1` (single isomer, unassigned) [Example 361C, 2′-chloro-N-(6-((2R or S,5S or R)-5-cyanobicyclo[2.2.1]heptan-2-yl)thiazolo[4,5-b]pyrazin-2-yl)-5′-methoxy-6-methyl-[4,4′-bipyridine]-3-carboxamide], the IC50 in assay [1] is 1 to 15 nM; with DLD1 BRCA2 (−/−) cells (Homo sapiens, DLD-1, 168 h) it was 0.001 to 0.1 µM; in the assay with DLD1 WT cells (Homo sapiens, DLD-1, 168 h), > 10 µM.

As to `COc1cnc(Cl)cc1-c1cc(C)ncc1C(=O)Nc1nc2ncc([C@H]3CC4CC3C[C@H]4C#N)nc2s1` (single isomer, unassigned) [Example 361D, 2′-chloro-N-(6-((2S or R,5R or S)-5-cyanobicyclo[2.2.1]heptan-2-yl)thiazolo[4,5-b]pyrazin-2-yl)-5′-methoxy-6-methyl-[4,4′-bipyridine]-3-carboxamide], the IC50 in assay [1] is 1 to 15 nM; in the assay with DLD1 BRCA2 (−/−) cells (Homo sapiens, DLD-1, 168 h), 0.001 to 0.1 µM; in the assay with DLD1 WT cells (Homo sapiens, DLD-1, 168 h), > 10 µM.

`COc1cnc(Cl)cc1-c1cc(C)ncc1C(=O)Nc1nc2ncc([C@@H]3CC[C@@H](CO)C3)nc2s1` (single isomer, unassigned) [Example 498, 2′-chloro-N-(6-((1R or S,3R and S)-3-(hydroxymethyl)cyclopentyl)thiazolo[4,5-b]pyrazin-2-yl)-5′-methoxy-6-methyl-[4,4′-bipyridine]-3-carboxamide]: the IC50 in assay [1] was 1 to 15 nM; in the assay on DLD1 BRCA2 (−/−) cells (Homo sapiens, DLD-1, 168 h) it was 0.001 to 0.1 µM; in the assay with DLD1 WT cells (Homo sapiens, DLD-1, 168 h), > 10 µM.

Regarding `COc1cnc(Cl)cc1-c1cc(C)ncc1C(=O)Nc1nc2ncc(C3CCOC3)cc2s1` (single isomer, unassigned) [Example 515, (R or S)-2′-chloro-5′-methoxy-6-methyl-N-(6-(tetrahydrofuran-3-yl)thiazolo[4,5-b]pyridin-2-yl)-[4,4′-bipyridine]-3-carboxamide], the IC50 is 1 to 15 nM in assay [1]; 0.1 to 0.25 µM with DLD1 BRCA2 (−/−) cells (Homo sapiens, DLD-1, 168 h); > 10 µM with DLD1 WT cells (Homo sapiens, DLD-1, 168 h).

Take `COc1cnc(Cl)cc1-c1cc(C)ncc1C(=O)Nc1nn2cc(C(=O)N[C@H]3CC[C@H](O)C3)nc2s1` [Example 21]: the figures for the IC50 (in assay [1]; in the assay on DLD1 BRCA2 (−/−) cells; in the assay on DLD1 WT cells) were 1 to 15 nM, 0.5 to 2 µM and > 10 µM, respectively.

As to `COc1cnc(Cl)cc1-c1cc(C)ncc1C(=O)Nc1nn2cc(C(=O)N[C@@H]3CCCC[C@@H]3O)nc2s1` [Example 22], the results for the IC50 (in assay [1]; with DLD1 BRCA2 (−/−) cells; with DLD1 WT cells) were 1 to 15 nM, > 2 µM and > 10 µM, respectively.

On to `COc1ccccc1-c1cc(C)ncc1C(=O)Nc1nc2ncc(-c3ccnc(C)c3)cc2s1` [Example 87], for which the IC50 in assay [1] was 1 to 15 nM; in the assay on DLD1 BRCA2 (−/−) cells (Homo sapiens, DLD-1, 168 h), 0.25 to 0.5 µM; with DLD1 WT cells (Homo sapiens, DLD-1, 168 h), > 10 µM.

As to `COc1ccccc1-c1cc(C)ncc1C(=O)Nc1nc2ccc(-c3ccccn3)cc2s1` [Example 121, 4-(2-methoxyphenyl)-6-methyl-N-(6-(pyridin-2-yl)benzo[d]thiazol-2-yl)nicotinamide], the IC50 in assay [1] lay within 50 to 150 nM; in the assay on DLD1 BRCA2 (−/−) cells (Homo sapiens, DLD-1, 168 h), 0.5 to 2 µM; in the assay on DLD1 WT cells (Homo sapiens, DLD-1, 168 h) it was 0.001 to 2.5 µM.

Consider `COc1cnc(Cl)cc1-c1cc(C)ncc1C(=O)Nc1nc2ncc(N3CCCC3)nc2s1` [Example 484, 2′-chloro-5′-methoxy-6-methyl-N-(6-(pyrrolidin-1-yl)thiazolo[4,5-b]pyrazin-2-yl)-[4,4′-bipyridine]-3-carboxamide], for which, in assay [1], the IC50 is 1 to 15 nM.

As for `COc1cnc(Cl)cc1-c1cc(Oc2cc(N)cc(Cl)c2)ncc1C(=O)Nc1nn2cc(C3CC3)nc2s1` [Example 493, 6-(3-amino-5-chlorophenoxy)-2′-chloro-N-(6-cyclopropylimidazo[2,1-b][1,3,4]thiadiazol-2-yl)-5′-methoxy-[4,4′-bipyridine]-3-carboxamide], the IC50 in assay [1] fell in the range of 50 to 150 nM.

`COc1cnc(Cl)cc1-c1cc(Oc2cccc(N)c2)ncc1C(=O)Nc1nn2cc(C3CC3)nc2s1` [Example 494, 6-(3-aminophenoxy)-2′-chloro-N-(6-cyclopropylimidazo[2,1-b][1,3,4]thiadiazol-2-yl)-5′-methoxy-[4,4′-bipyridine]-3-carboxamide]: the IC50 in assay [1] lay in the range of 15 to 50 nM.

`COc1cnc(Cl)cc1-c1cc(Oc2cccc(NC(=O)OC(C)(C)C)c2)ncc1C(=O)Nc1nn2cc(C3CC3)nc2s1` [Example 495, tert-butyl (3-((2′-chloro-5-((6-cyclopropylimidazo[2,1-b][1,3,4]thiadiazol-2-yl)carbamoyl)-5′-methoxy-[4,4′-bipyridin]-2-yl)oxy)phenyl)carbamate]: the IC50 in assay [1] was in the range of 150 to 900 nM.

With `COc1cnc(Cl)cc1-c1cc(C)ncc1C(=O)Nc1nc2ncc(N3CC[C@H](CO)C3)nc2s1` [Example 500, (S)-2′-chloro-N-(6-(3-(hydroxymethyl)pyrrolidin-1-yl)thiazolo[4,5-b]pyrazin-2-yl)-5′-methoxy-6-methyl-[4,4'-bipyridine]-3-carboxamide], in assay [1], the half-inhibitory concentration (IC50) was in the range of 15 to 50 nM.

For the molecule `COc1cnc(Cl)cc1-c1cc(C)ncc1C(=O)Nc1nc2ncc(N3CC[C@@H](CO)C3)nc2s1` [Example 501, (R)-2′-chloro-N-(6-(3-(hydroxymethyl)pyrrolidin-1-yl)thiazolo[4,5-b]pyrazin-2-yl)-5′-methoxy-6-methyl-[4,4′-bipyridine]-3-carboxamide], in assay [1], the 50% inhibitory concentration (IC50) was 1 to 15 nM.

Regarding `COc1cnc(Cl)cc1-c1cc(C)ncc1C(=O)Nc1nc2ncc(N3CC(O)C3)nc2s1` [Example 503, 2′-chloro-N-(6-(3-hydroxyazetidin-1-yl)thiazolo[4,5-b]pyrazin-2-yl)-5′-methoxy-6-methyl-[4,4′-bipyridine]-3-carboxamide], in assay [1], the IC50 lay in the range of 1 to 15 nM.

As to `COc1cnc(Cl)cc1-c1cc(C)ncc1C(=O)Nc1nc2ncc(N3CC(CO)C3)nc2s1` [Example 505, 2′-chloro-N-(6-(3-(hydroxymethyl)azetidin-1-yl)thiazolo[4,5-b]pyrazin-2-yl)-5′-methoxy-6-methyl-[4,4′-bipyridine]-3-carboxamide], the IC50 in assay [1] was in the range of 1 to 15 nM.

As for `Cc1cc(-c2c3cnccc3nn2C)c(C(=O)Nc2nc3ncc(-c4ccncc4)nc3s2)cn1` [Example 513, 6-methyl-4-(2-methyl-2H-pyrazolo[4,3-c]pyridin-3-yl)-N-(6-(pyridin-4-yl)thiazolo[4,5-b]pyrazin-2-yl)nicotinamide], the IC50 in assay [1] lay in the range of 15 to 50 nM.

Turning to `Cc1cc(-c2nn(C)c3ccncc23)c(C(=O)Nc2nc3ncc(-c4ccncc4)nc3s2)cn1` [Example 517, 6-methyl-4-(1-methyl-1H-pyrazolo[4,3-c]pyridin-3-yl)-N-(6-(pyridin-4-yl)thiazolo[4,5-b]pyrazin-2-yl)nicotinamide], the IC50 in assay [1] is > 900 nM.

The values are drawn from patent US20260015360A1 (MOMA Therapeutics, Inc., priority 2023, published 2026).
